For one experiment, the system named is MEK1/2. The experiment in a line: Western blot, cellular pERK1/2 decrease after EGF stimulation. It is filed as cell-based. To be noted: MDA-MB-231 cells, compound 10 μM pretreatment 30 min, then EGF 50 ng/mL 15 min. Here is the method:
(§1) Western Blot Analysis of Potential MEK-5 Inhibitors
(§2) The MDA-MB-231 triple negative breast cancer cell line was pretreated with compounds (10 μM) for 30 min followed by stimulation with epidermal growth factor (EGF, 50 ng/mL) for 15 min. Vehicle-treated cells were pretreated with DMSO for 30 min prior to EGF stimulation for 15 min. Protein visualization and quantification analysis was performed using LI-COR Odyssey Imager. *P<0.05 vs. Vehicle, one-way ANOVA followed by Tukey-Kramer test (n=3)

For a further experiment, the target named is T1, MEK5 (Homo sapiens, UniProt Q13163).
T1 construct: The MDA-MB-231 triple negative breast cancer cell line was pretreated with compounds; endogenous in cells; host or cells: MDA-MB-231
T1 sequence (Q13163 1-448): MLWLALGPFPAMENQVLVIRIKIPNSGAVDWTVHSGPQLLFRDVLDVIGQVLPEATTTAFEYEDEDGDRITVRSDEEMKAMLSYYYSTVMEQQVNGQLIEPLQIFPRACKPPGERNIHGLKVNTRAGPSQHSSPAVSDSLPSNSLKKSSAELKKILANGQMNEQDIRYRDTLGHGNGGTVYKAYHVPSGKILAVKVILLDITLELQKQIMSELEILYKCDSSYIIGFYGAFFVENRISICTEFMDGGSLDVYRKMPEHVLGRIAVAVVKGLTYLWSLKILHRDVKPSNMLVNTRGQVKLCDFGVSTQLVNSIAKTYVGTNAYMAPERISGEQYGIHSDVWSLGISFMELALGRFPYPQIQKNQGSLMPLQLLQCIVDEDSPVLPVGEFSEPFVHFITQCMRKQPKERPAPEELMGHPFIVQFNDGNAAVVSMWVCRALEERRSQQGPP
The experiment in a line: Western blot, cellular pERK5 decrease after EGF stimulation. It is filed as cell-based. Particulars: MDA-MB-231 cells, compound 10 μM pretreatment 30 min, then EGF 50 ng/mL 15 min. As for the experimental part:
as §1, §2
Background: Immunoblotting shows a protein as a band on a membrane.

Data on five compounds can be found in patent US10654792B2, “Carboxylic acid ester prodrug inhibitors of MEK” (DUQUESNE UNIVERSITY OF THE HOLY GHOST, priority 2012, dated 2020).

Take `COC(=O)c1ccc(F)c(F)c1Nc1ccc(I)cc1F` [SC-1-72 Ester]: the “cellular pERK1/2 decrease (%)” value with MEK1/2 is 98.5%. Also, the “cellular pERK5 decrease (%)” value on MEK5 turned out to be 20.1%.

Turning to `O=C(O)c1ccc(F)c(F)c1Nc1ccc(I)cc1F` [SC-1-148, 3,4-Difluoro-2-((2-fluoro-4-iodophenyl)amino)benzoic Acid], the “cellular pERK1/2 decrease (%)” value in the experiment with MEK1/2 is on record as 98.5%. The “cellular pERK5 decrease (%)” value at MEK5 is listed as 20.1%.

Turning to `O=C(O)c1ccc(F)c(F)c1Nc1ccccc1` [SC-1-175], the “cellular pERK1/2 decrease (%)” value with MEK1/2 is on record as 64.4%. The “cellular pERK5 decrease (%)” value on MEK5 is reported as 2.1%.

As to `CN[C@@H]1C[C@H]2O[C@@](C)([C@@H]1OC)n1c3ccccc3c3c4c(c5c6ccccc6n2c5c31)C(=O)NC4` [staurosporine, reference compound], the “cellular pERK1/2 decrease (%)” value with MEK1/2 stood at 98.93%.

Regarding `N#CC(=C(/N)Sc1ccccc1N)/C(C#N)=C(\N)Sc1ccccc1N` [U0126, reference compound], the “cellular pERK1/2 decrease (%)” value with MEK1/2 is reported as 99.72%. Further, the “cellular pERK5 decrease (%)” value on MEK5 came to 0.28%.
